This note sets out measurements from patent US20240139211A1, “METHODS AND COMPOSITIONS FOR TREATING AMYOTROPHIC LATERAL SCLEROSIS” (Amylyx Pharmaceuticals, Inc., priority 2022, published 2024).

Where “and” joins values, the source holds several entries; their conditions need not be identical. Identical values can stand only once. Counter-ions that a name gives are not always drawn. Like-named read-outs stand apart in the source and are kept apart here. Where only a bound is given, the exact number is not on record here.

For one series, the system named is human hepatocytes. The settings on record: 72 h, 100 μM. The procedure:
Plateable and inducible cryopreserved human hepatocytes were thawed and isolated in human hepatocyte thawing medium. […] After attachment (4 hours), the medium was changed to fresh hepatocyte culture medium for overnight cell recovery. […] A positive control (100 μM chlorpromazine) was treated in parallel.

For series [1] the following is noted: rat, in vivo.
The nature of series [2]: Rat drug-drug interaction study TDF + AMX0035: urine recovery. Type of series: in vivo. The settings on record: for Amount Recovered: male Sprague Dawley rats, oral, total urine, 24 hour collection. The procedure:
Total urine recovery data for Tenofovir, TDF, and PB was calculated for the 24 hour collection period on Days 1 and 5. […] The reported urine recovery data included amount recovered (ng) and percent recovered (%) for […]. Individual and mean Tenofovir, TDF, and PB urine recovery data were presented with SD, reported to three significant figures, and CV %, reported to one decimal place.

Another series deals with hrCYP3A4 (Homo sapiens, UniProt P08684). Briefly: Formation of CYP probe metabolite by hrCYP3A4. Particulars: hrCYP3A4 vs Negative Control, QC criterion ≥2. Type of series: in vitro ADME.
Sequence of hrCYP3A4 (P08684 whole entry): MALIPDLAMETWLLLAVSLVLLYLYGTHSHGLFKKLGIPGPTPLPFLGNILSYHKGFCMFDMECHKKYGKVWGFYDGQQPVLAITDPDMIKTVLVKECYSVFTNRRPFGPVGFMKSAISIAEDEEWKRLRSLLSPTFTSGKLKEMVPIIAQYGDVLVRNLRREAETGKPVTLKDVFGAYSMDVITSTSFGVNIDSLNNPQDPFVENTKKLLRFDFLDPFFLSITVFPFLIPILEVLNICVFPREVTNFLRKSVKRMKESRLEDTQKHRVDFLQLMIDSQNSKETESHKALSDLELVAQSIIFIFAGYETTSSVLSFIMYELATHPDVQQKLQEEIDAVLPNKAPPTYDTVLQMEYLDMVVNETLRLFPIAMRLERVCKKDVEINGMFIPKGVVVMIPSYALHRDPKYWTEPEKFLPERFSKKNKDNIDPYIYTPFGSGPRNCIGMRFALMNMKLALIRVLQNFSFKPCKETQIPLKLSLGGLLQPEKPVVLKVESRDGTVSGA
The target of the next series is T1, CYP2B6 (Homo sapiens, UniProt P20813).
T1 sequence (P20813 1-491): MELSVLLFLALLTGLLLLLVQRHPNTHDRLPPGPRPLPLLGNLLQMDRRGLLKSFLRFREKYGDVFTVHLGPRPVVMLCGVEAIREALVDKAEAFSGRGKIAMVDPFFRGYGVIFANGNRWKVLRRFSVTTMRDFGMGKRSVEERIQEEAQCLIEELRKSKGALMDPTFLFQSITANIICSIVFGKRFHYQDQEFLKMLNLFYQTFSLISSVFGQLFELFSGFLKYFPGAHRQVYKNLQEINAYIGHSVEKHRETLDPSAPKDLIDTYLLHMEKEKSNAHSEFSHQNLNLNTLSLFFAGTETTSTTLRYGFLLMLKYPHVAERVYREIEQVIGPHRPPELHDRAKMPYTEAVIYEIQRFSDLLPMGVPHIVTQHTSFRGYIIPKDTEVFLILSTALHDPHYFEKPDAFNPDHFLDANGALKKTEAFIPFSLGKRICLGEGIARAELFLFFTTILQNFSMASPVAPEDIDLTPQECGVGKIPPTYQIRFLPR
Briefly: in vitro. The settings on record: microsomes, pH 7.4.

For the next series, the target named is hrCYP2C9 (Homo sapiens, UniProt P11712). Particulars: 20 min, 6 μM, pH 7.4.
Sequence of hrCYP2C9 (P11712 whole entry): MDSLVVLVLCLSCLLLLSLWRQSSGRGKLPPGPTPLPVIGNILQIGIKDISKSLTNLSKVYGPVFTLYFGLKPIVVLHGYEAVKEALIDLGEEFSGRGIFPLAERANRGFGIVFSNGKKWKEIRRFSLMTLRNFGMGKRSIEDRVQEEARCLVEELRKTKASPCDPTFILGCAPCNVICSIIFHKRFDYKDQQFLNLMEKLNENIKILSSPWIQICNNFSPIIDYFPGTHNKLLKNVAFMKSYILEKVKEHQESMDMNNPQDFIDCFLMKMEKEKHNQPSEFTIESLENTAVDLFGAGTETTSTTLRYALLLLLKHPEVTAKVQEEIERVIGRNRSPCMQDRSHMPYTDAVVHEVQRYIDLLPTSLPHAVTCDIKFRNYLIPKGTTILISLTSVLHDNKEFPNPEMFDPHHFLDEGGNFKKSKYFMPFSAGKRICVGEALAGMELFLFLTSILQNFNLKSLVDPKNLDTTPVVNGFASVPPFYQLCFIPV
In series [3] the target is T2, CYP2C9 (Homo sapiens, UniProt P11712). Particulars: 4 μM, pH 7.4.
T2 sequence (P11712 whole entry): as above
The target of series [4] is T2, CYP2C9. Briefly: Inhibition of CYP2C9 in human liver microsomes. The settings on record: pH 7.4. In general terms: Liver microsomes are a subcellular fraction often used to study metabolism.

`CN(C)CCCN1c2ccccc2Sc2ccc(Cl)cc21` [Chlorpromazine, chlorpromazine]: in the series on human hepatocytes, the “% MTS absorbance relative to vehicle control” value came out at 24.3% and the “Formazan absorbance, mean” value worked out at 0.160.
Consider `C[C@H](Cn1cnc2c(N)ncnc21)OCP(=O)(O)O` [Tenofovir], for which the “Fold increase of mean AUClast in the presence of AMX0035” value in series [1] was 2.17 fold. For the same compound, in series [1], the “Fold increase of mean Cmax in the presence of AMX0035” value is given as 1.24 fold. The “Individual Tmax” value in series [1] amounted to 15 min. The “Amount Recovered” value is 77300 ng and 63200 ng and 234000 ng in series [2] (Day 1, TDF only 25 mg/kg, individual animals); 125000 ng in series [2] (Day 1, TDF only 25 mg/kg, mean); 764000 ng and 296000 ng and 99500 ng in series [2] (Day 5, AMX0035 + TDF 840/25 mg/kg, individual animals); 386000 ng in series [2] (Day 5, AMX0035 + TDF 840/25 mg/kg, mean).
On to `Cc1ncc2n1-c1ccc(Cl)cc1C(c1ccccc1F)=NC2` [Midazolam], for which the “Formation Rate Ratio” value on hrCYP3A4 (Midazolam (2 μM)) is >>2.
At CYP2B6, `S=P(N1CC1)(N1CC1)N1CC1` [Thio-TEPA] yielded an activity at 3.33 µM of 66.9%, an activity at 10 µM of 44.1% and an activity at 30 µM of 26.7%.
`O=C(O)Cc1ccccc1Nc1c(Cl)cccc1Cl` [Diclofenac]: at hrCYP2C9, the “Formation Rate” value is 0 pmol metabolite/min/mg Supersome protein and the “Measured Metabolite” value was 0 µM. Besides, on hrCYP2C9 (human), the “Formation Rate” value is 845 pmol metabolite/min/mg Supersome protein and the “Measured Metabolite” value turned out to be 1.56 µM. Besides, the “Formation Rate Ratio” value at CYP2C9 [3] is on record as 7.7.
Regarding `Nc1ccc(S(=O)(=O)Nc2ccnn2-c2ccccc2)cc1` [Sulfaphenazole], on CYP2C9 [4], the activity at 3.33 µM worked out at 23.8% and the activity at 10 µM was 14.9%.
Consider `CC(C)OC(=O)OCOP(=O)(CO[C@H](C)Cn1cnc2c(N)ncnc21)OCOC(=O)OC(C)C` [TDF, Tenofovir Disoproxil Fumarate], for which the Prodrug in plasma result in series [1] is listed as “No prodrug (TDF) was detected in plasma”. In addition, the Urine concentrations entry in series [2] (male, Sprague-Dawley, rat, in vivo) is “Urine concentrations for PB analysis in all animals on Day 1, for TUDCA analysis in all animals on Days 1 and 5, and for TDF analysis in two animals on Day 1 and one animal on Day 5 were BLQ (<20 mg/mL) so no recovery data was calculated”.
Take `C[C@]12CC[C@H]3[C@@H](CCC4=CC(=O)CC[C@@]43C)[C@@H]1CC[C@@H]2O` [Testosterone]: the “Formation Rate Ratio” value on hrCYP3A4 (Testosterone (50 μM)) is recorded as >>2.
